Measured values reported in patent US10070660B2, “Pet food palatability with antimicrobial properties based on organic acids” (KEMIN INDUSTRIES, INC., priority 2012, dated 2018).

Legend:
[1] = tested on: Salmonella (five Salmonella enterica serovars); assay: Cat kibble challenge with dried five strain Salmonella cocktail inoculum; type: cell-based; conditions: for Salmonella counts on challenged cat kibble vs control palatant (in words): cat kibble challenge
Method: (§1) One ml of each Salmonella culture was separately inoculated into a beaker containing tempered (ambient), sterilized MBM which was then incubated at 37° C. for 48 hours. Inoculated MBM was dispensed (approx. 200 g) into sterile 250 ml centrifuge bottles and centrifuged at 5,000 rpm for 10 minutes. The supernatant was decanted and autoclaved for disposal. The pellets were suspended in 10 ml TSB-20% glycerol. Suspensions (approximately 150-160 g) were transferred to sterilized 250 ml polycarbonate straight side wide mouth jars with lids (Nalgene, Thermo Scientific). Jars containing MBM-Salmonella suspensions were immediately frozen at −70° C. for 1 hour. Frozen MBM-Salmonella suspensions were lyophilized using a FreeZone-1 Liter benchtop freeze dry system (Labconco) (approx. 96 hours, −50° C.). Each lyophilized Salmonella culture was pulverized to a fine powder using a sterile mortar and pestle. Twenty g of each of the five lyophilized Salmonella cultures was combined in a sterile wide mouth glass jar to make the dried Salmonella cocktail inoculum. […] Solidified plates were incubated inverted at 37° C. for 16-18 hours. Visible colonies were counted and colony forming units per gram were calculated (CFU/g). […] Kibble and inoculum were mixed together for five minutes by hand in a plastic zip top bag, and allowed to rest for 1 hour prior to sampling. Coated, un-inoculated kibble was also included in the study and tested for Salmonella (direct plating and FDA BAM), total aerobic bacteria, mold and yeast counts, pH, percent moisture, and water activity. For each analysis time point challenged kibble was sampled in triplicate. Kibbles were stored at ambient temperature.
(§2) Challenged kibble samples bags were mixed thoroughly, then 5.00 g (±0.01) was aseptically weighed into a sterile plastic bag and diluted with 45 ml sterile Phosphate Buffer (Butterfield) diluent (BPB) containing (g/l) KH2PO4 34.0, pH adjusted to 7.2 with 1N sodium hydroxide and homogenized using a Stomacher (Seward Stomacher 80) for 1 minute and serially diluted in BPB for plating. The plates are poured with tempered (45° C.) XLD agar. After solidification, plates were inverted and placed in an incubator (37° C.). Colonies were counted and CFU/g was calculated. The counts for each triplicate sample were averaged and expressed as log CFU/g. Those samples of which were below the detection limit of <10 CFU/g were assigned 0 log CFU/g for the purpose of statistical analysis. Analysis of Variance using the LSD separation of means method was performed to analyze the data using StatGraphics software (StatPoint Technologies, Inc. Warrenton, Va.).
All procedures for the Phase 3 kibble challenge were conducted as described for Phase 2.

cats = assay: Cat palatability, two-pan method (intake ratio); type: in vivo; conditions: for IR-A: Ration B incumbent; for effect on palatability / taste (in words): summary statement, no trial details
[2] = tested on: Salmonella (five Salmonella enterica serovars); assay: Dog kibble challenge with dried five strain Salmonella cocktail inoculum; type: cell-based; conditions: dog kibble challenge
Method: as §1, §2
Dry dog palatants were formulated with fumaric acid or SBS to deliver 0.5% acid to the surface of the kibble. The effect of each acid on Salmonella challenged on the surface of dog kibble was examined. Dog kibbles were challenged with dried five strain Salmonella cocktail inoculum.
The effect of each acid on Salmonella challenged on the surface of dog kibble was examined. Dog kibbles were challenged with dried five strain Salmonella cocktail inoculum prep.

[3] = Table 14, single acid 0.5% on cat kibble, day 0
[4] = Table 14, single acid 0.5% on cat kibble, day 1
[5] = Table 14, single acid 0.5% on cat kibble, day 3
[6] = Table 14, single acid 0.5% on cat kibble, day 7
[7] = Table 14, single acid 0.5% on cat kibble, day 14
[8] = Table 14, single acid 0.5% on cat kibble, day 23
[9] = Example 4 cat trials, formula 89-87 or 89-145 vs incumbent dry palatant
[10] = Second set, Formula 89-87, 0.5% total acid on kibble
[11] = Second set, Formula 89-87, 0.25% acid on kibble
[12] = First set, Prototype 89-87 at 2.5%, 0.25% acid on kibble
[13] = First set, Prototype 89-87 at 2.5%, 0.5% total acid on kibble

## O=C(O)CC(O)(CC(=O)O)C(=O)O [CA, citric acid]
[1]; [3]
  Salmonella: 2.05 ± 0.05^Ba log CFU/g
[1]; [4]
  Salmonella: 1.54 ± 0.16^BCDab log CFU/g
[1]; [5]
  Salmonella: 1.46 ± 0.09^ABb log CFU/g
[1]; [6]
  Salmonella: 0.77 ± 0.39^ABc log CFU/g
[1]; [7]
  Salmonella: 0.00 ± 0.00^Bd log CFU/g
[1]; [8]
  Salmonella: 0.00 ± 0.00^Bd log CFU/g
[1]
  Salmonella counts on challenged cat kibble vs control palatant (in words): effective at significantly reducing Salmonella
cats; [9]
  palatability (in words): adequate palatability
cats; [10]
  IR-A: 0.46% (N.S.)

## O=C(O)c1cc(O)c(O)c(O)c1 [GA, gallic acid]
cats; [9]
  palatability (in words): very good palatability
cats; [11]
  IR-A: 0.55 (N.S.)
cats; [10]
  IR-A: 0.70 (p ≤ 0.001)

## O=C(O)CC(O)C(=O)O (stereo not drawn) [Malic acid, reference compound]
cats
  effect on palatability / taste (in words): adverse effects on palatability

## C/C=C/C=C/C(=O)O [Sorbic Acid, sorbic acid]
[1]; Table 12, 0.50% total acid on cat kibble, day 0
  Salmonella: 3.50 ± 0.06^Ba log CFU/g
[1]; Table 12, 0.50% total acid on cat kibble, day 1
  Salmonella: 2.10 ± 0.08^Bb log CFU/g
[1]; Table 12, 0.50% total acid on cat kibble, day 5
  Salmonella: 0.77 ± 0.39^Bc log CFU/g
[1]; Table 12, 0.50% total acid on cat kibble, day 7
  Salmonella: 0.49 ± 0.49^Bc log CFU/g
[1]; Table 12, 0.50% total acid on cat kibble, day 14
  Salmonella: 0.67 ± 0.33^Bc log CFU/g
[1]; Table 12, 0.50% total acid on cat kibble, day 21
  Salmonella: 0.00 ± 0.00^Bc log CFU/g
[1]; listed as sorbic
  Salmonella counts on challenged cat kibble vs control palatant (in words): effective at significantly reducing Salmonella
[1]; listed as sorbic acid
  Salmonella counts on challenged cat kibble vs control palatant (in words): significantly lower
cats; Confirmation trials, Prototype 89-87, 0.5% total acid on kibble
  IR-A: 0.59 p ≤ 0.001)
cats; Example 4 cat trials, formula 89-87 or 89-145 vs incumbent dry palatant, listed as Sorbic acid
  palatability (in words): scored significantly higher than the incumbent flavor
cats; Example 4 cat trials, formula 89-87 or 89-145 vs incumbent dry palatant, listed as sorbic acid
  palatability (in words): remained high
cats; [12]
  IR-A: 0.74 (p ≤ 0.001)
cats; [13]
  IR-A: 0.70 (p ≤ 0.001)
[2]
  Salmonella counts on challenged dog kibble vs control palatant (in words): effective at significantly reducing Salmonella

## O=C(O)CCC(=O)O [Suc, succinic acid]
[1]
  Salmonella counts on challenged cat kibble vs control palatant (in words): effective at significantly reducing Salmonella
cats; [9]
  palatability (in words): palatable alternate to fumaric acid
cats; [12]
  IR-A: 0.56 (N.S.)
cats; [13]
  IR-A: 0.54 (N.S.)
[2]
  Salmonella counts on challenged dog kibble vs control palatant (in words): effective at significantly reducing Salmonella

## O=C(OC[C@H]1O[C@@H](OC(=O)c2cc(O)c(O)c(OC(=O)c3cc(O)c(O)c(O)c3)c2)[C@H](OC(=O)c2cc(O)c(O)c(OC(=O)c3cc(O)c(O)c(O)c3)c2)[C@@H](OC(=O)c2cc(O)c(O)c(OC(=O)c3cc(O)c(O)c(O)c3)c2)[C@@H]1OC(=O)c1cc(O)c(O)c(OC(=O)c2cc(O)c(O)c(O)c2)c1)c1cc(O)c(O)c(OC(=O)c2cc(O)c(O)c(O)c2)c1 [TA, tannic acid]
[1]; [3]
  Salmonella: 3.19 ± 0.17^Aa log CFU/g
[1]; [4]
  Salmonella: 2.51 ± 0.26^Ab log CFU/g
[1]; [5]
  Salmonella: 2.05 ± 0.18^Ab log CFU/g
[1]; [6]
  Salmonella: 1.50 ± 0.10^Ac log CFU/g
[1]; [7]
  Salmonella: 1.46 ± 0.16^Ac log CFU/g
[1]; [8]
  Salmonella: 0.00 ± 0.00^Bd log CFU/g
[1]
  Salmonella counts on challenged cat kibble vs control palatant (in words): effective at significantly reducing Salmonella
cats; [9]
  palatability (in words): acceptable palatability
cats; [11]
  IR-A: 0.55 (N.S)

## O=C(O)/C=C\C(=O)O [maleic acid, reference compound]
cats
  effect on palatability / taste (in words): repulsive, astringent taste

## O=C(O)C(O)C(O)C(=O)O (stereo not drawn) [tartaric acid, reference compound]
cats; Example 1 cat trials, dry palatant 1.5% on kibble, vs benchmark
  palatability (in words): significant declines in palatability
cats; Trial 412, 33% tartaric acid in formula, palatant 1.5% on kibble, vs name brand cat food
  IR: 0.24
cats
  effect on palatability / taste (in words): adverse effects on palatability
